The values below come from patent publication US7825094B2, “Method of treatment for cancers associated with elevated HER 2 levels” (Sloan-Kettering Institute for Cancer Research, priority 2001, dated 2010).

Assay [1] relates to human cancer cell lines BT-474, SKBR-3, SKOV-3, MCF-Her2, MCF-7, MDA-468, MDA-231, T47-D, MDA435. As to the kind of experiment: Antiproliferative effect on cancer cell lines expressing different amounts of HER-2 (ethidium bromide nuclei staining, flow cytometry). The class given is cell-based. The method, then: Human cancer cell lines BT-474, SKBR-3, SKOV-3, MCF-Her2, MCF-7, MDA-468, MDA-231, T47-D, and MDA435 were obtained from the American Type Culture Collection (“ATCC;” Manassas, Va., USA). Cell lines were maintained in […] medium, supplemented with 5% fetal calf serum (BRL), 2 mM glutamine, and 50 U/ml each of penicillin and streptomycin, at 37° C. in 5% CO2.
Cells were treated for 24 hours with CNF-101 (17-AAG) at concentrations of 1 to 1000 nM. Following treatment, the nuclei were stained with ethidium bromide and analyzed by flow cytometry. Nuclei were isolated for flow cytometry assays, stained with ethidium bromide and analyzed using a Becton Dickinson fluorescence-activated cell sorter. Statistical data was obtained using Multicycle program software.
Those cell lines expressing the highest levels of HER-2 were the most sensitive to CNF-101 (17-AAG) (FIG. 1).
(In general: Flow cytometry measures light scatter and fluorescence of single cells or particles in a stream.)

For assay [2], the system named is cyclin D1, cyclin D3, cdk4, AKT, Raf-1 in BT-474 cells. As to the kind of experiment: Immunoblot of protein expression in BT-474 (HER-2+++) cells. The class given is cell-based, human. To be noted: 50 nM or 500 nM. How it is done:
(§1) Levels of mitotic cyclin expression, HER-2 expression, AKT expression and Raf1 expression in MCF-7 (HER-2 negative) or BT-474 (HER-2+++) cell lines treated with CNF-101 (17-AAG) were assessed using immunoblot analysis. Immunoblot analysis of lysates from cells treated with either 50 nM or 500 nM CNF-101 (17-AAG) were analyzed by Western blot using anti-cyclin D1, anti-cyclin D3, anti-cyclin cdk4, anti-AKT or anti-Raf1 antibodies. All antibodies were obtained from Santa Cruz Biotechnology (Santa Cruz, Calif., USA). Treated cells were harvested, washed with PBS and lysed in NP40 lysis buffer (50 mM Tris pH7.4, 1% NP40,150 mM NaCl, 40 mM NaF. 1 mM Na3VO4, 1 mM phenylmethylsulfonylfluoride, and 10 μg/ml each of leupeptin, aprotinin and soybean trypsin inhibitor) for 30 min on ice. Lysates were centrifuged at 15,000×g for 10 min and protein concentration determined by bicinchoninic acid protein assay (Pierce). Equal amounts of total protein were resolved by SDS-PAGE and transferred onto Immobilon PVDF membranes (Millipore) by electroblotting. Blots were blocked overnight in 5% nonfat milk in TBS-T (0.1% Tween-20 TBS, 10 mM Tris pH 7.4, 150 mM NaCl) at 4° C. and subsequently probed with either anti-HER-2, anti-cylin D1, anti-cyclin D3, anti cdk4, anti-AKT or anti-Raf1 antibodies. Following incubation with HRP-conjugated secondary antibodies, proteins were detected by chemiluminescence (Amersham).
A general note: A western blot detects proteins with antibodies after separation by electrophoresis.

In assay [3] the test system is cyclin D1, cyclin D3, cdk4, AKT, Raf-1 in MCF-7 cells. Description: Immunoblot of protein expression in MCF-7 (HER-2 negative) cells. The class given is cell-based, human. To be noted: 50 nM or 500 nM. The method, then: as §1
The subject of assay [4] is AKT kinase activity in high HER-2 (SKBr3) cells. Description: AKT kinase activity after immunoprecipitation (GSK-1 substrate, 32-P ATP) in SKBr3 cells. The class given is cell-based, human. To be noted: 100 nM. The method, then: (§2) Lysates were resolved by SDS-PAGE, transferred onto Immobilon PVDF membranes, blocked in 5% nonfat milk and probed with antibodies to AKT or […] phosphorylated AKT (phospho-AKT) from Upstate. Following incubation with HRP-conjugated secondary antibodies, proteins were detected using chemiluminescnce (Amersham). AKT kinase activity was assessed following immunopreciptation by a standard kinase assay with the recombinant AKT substrate protein […] and 32-P labelled ATP. AKT is a key kinase in tumor cells.

The subject of assay [5] is AKT kinase activity in HER-2-low MCF-7 line. As to the kind of experiment: AKT kinase activity after immunoprecipitation (GSK-1 substrate, 32-P ATP) in MCF-7 cells. The class given is cell-based, human. To be noted: ten times 100 nM. How it is done: as §2, with “Cells were treated with 1 uM CNF-101 (17-AAG) for 24 hrs, washed, harvested and lysed in NP-40. Lysates” for “Lysates”

In assay [6] the test system is AKT and phospho-AKT in HER-2+++ and HER-2- cells. As to the kind of experiment: Western blot of AKT and phospho-AKT in HER-2+++ and HER-2- cells. The class given is cell-based, human. To be noted: 1 uM, 24 hrs. How it is done:
as §2, with “Cells were treated with 1 uM CNF-101 (17-AAG) for 24 hrs, washed, harvested and lysed in NP-40. Lysates” for “Lysates”

Assay [7] has as its system AKT and phospho-AKT in BT-474, SKBR-3, U87, MCF-7, MDA-468 cells. As to the kind of experiment: Western blot of AKT and phospho-AKT in a panel of cell lines. The class given is cell-based, human. The method, then:
Cells were treated with 1 uM CNF-101 (17-AAG) for 24 hrs, washed, harvested and lysed in NP-40. Lysates were resolved by SDS-PAGE, transferred onto Immobilon PVDF membranes, blocked in 5% nonfat milk and probed with antibodies to AKT or […] phosphorylated AKT (phospho-AKT) from Upstate. Following incubation with HRP-conjugated secondary antibodies, proteins were detected using chemiluminescnce (Amersham). AKT is a key kinase in tumor cells.

Assay [8] concerns HER-2, AKT and phospho-AKT in BT-474 xenografts. Description: Western blot of HER-2, AKT and phospho-AKT in BT-474 breast carcinoma xenografts. The class given is in vivo, Swiss nu/nu mice. To be noted: 50 mg/kg, intraperitoneally. The method, then: BT-474 breast tumor cells were implanted subcutaneously on the flank of Swiss nu/nu mice and allowed to become established to a diameter of 5 mm. Animals were treated intraperitoneally with optimal doses of CNF-101 (17-AAG) and tumors removed at the indicated times thereafter. Tumor tissue was snap-frozen at the time of removal. For analysis, tissues were rapidly thawed, lysed and assaysed for HER-2, AKT and phospho-AKT by Western blotting.

Where [9] appears, read: HER-2 overexpressing cells (BT-474).
Setting [10] is: HER low expressing cells (MCF-7).
[11] abbreviates: 1 uM, 24 hrs, panel of cell lines.

A value given as a limit tells only on which side of the number the result lay.

Regarding `C=CCNC1=C2C[C@@H](C)C[C@H](OC)[C@H](O)[C@@H](C)/C=C(\C)[C@H](OC(N)=O)[C@@H](OC)/C=C\C=C(/C)C(=O)NC(=CC1=O)C2=O` [CNF-101 (17-AAG), 17-allylamino-17-demethoxygeldanamycin], in assay [1] (24 hours, 1 to 1000 nM, all cell lines tested (FIG. 1)), the growth arrest result is on record as “caused growth arrest in all the cell lines tested”. Moreover, the “difference in sensitivity between congenic pair” value in assay [1] (MCF-7 vs. MCF-7/HER-2) turned out to be 10 fold. Besides, the “sensitivity of high HER-2 lines versus low HER-2 lines” value in assay [1] (high HER-2: BT-474, SKBR-3, SKOV-3, MDA435, low HER-2: MDA-468, MDA-231, T47D) was “markedly more sensitive”. In assay [2] (BT-474), the “cyclin D1 protein level” value is “rapid decrease” and the “cyclin D3 protein level” value was “rapid decrease”. Also, in assay [2] (BT-474, 0, 4, 12, 24 hours), the “Raf-1 (HSP90 client protein) level” value is recorded as “degradation”. In addition, in assay [2] (setting [9]), the AKT protein level entry is given as “not affected” and the cdk4 protein level entry is given as “not affected”. In assay [3] (setting [10]), the AKT protein level entry is reported as “not affected” and the cdk4 protein level entry is “not affected”. Moreover, in assay [3] (MCF-7 (low HER-2)), the “decrease in cyclin D1 protein level” value is given as “not seen” and the “decrease in cyclin D3 protein level” value is given as “not seen”. The “Raf-1 (HSP90 client protein) level” value in assay [3] (MCF-7, 0, 4, 12, 24 hours) was “degradation”. Further, the “time to complete loss of AKT activity” value in assay [4] is no more than 3 h. In addition, in assay [5], the “time to cause even partial loss of AKT kinase activity” value was found to be 12 h. For the same molecule, in assay [6], the AKT protein level result is listed as “does not cause significant loss of the protein” and the phospho-AKT level result is listed as “disappears from the treated cells”. Also, in assay [7] (setting [11]), the AKT protein level result is recorded as “does not cause significant loss of the protein” and the phospho-AKT level entry is on record as “disappears from the treated cells”. In assay [7] (1 uM, multiple cell lines), the AKT activity entry is recorded as “causes loss of AKT activity in multiple cell lines”. The “loss of AKT activity in high HER-2 lines versus low HER-2 lines” value in assay [7] (high HER-2: BT-474, SKBR-3, low HER-2: U87, MCF-7, MDA-468) was “much more rapid and complete loss of AKT activity”. Also, in assay [8], the “AKT protein levels in xenograft” value is listed as “remained constant”, the “HER-2 protein levels in xenograft” value is listed as “declined” and the “phosphorylated ("active") AKT protein in xenograft” value is on record as “declined rapidly”.
